# Legend:
# [1] = Solubility and chemical stability of the active substances; assay type: physicochemical; conditions: for solubility: water and aqueous buffers at various pH values
# From the text: To ensure good bioavailability of the compound, it is therefore advantageously provided in a form that promotes rapid dissolution thereof.
# This has the added advantage of facilitating a more homogenous distribution of the ethinylestradiol throughout the composition which might otherwise be difficult to obtain because ethinylestradiol is incorporated in extremely small amounts. When ethinylestradiol is provided in micronized form, it preferably has the following particle size distribution as determined under the microscope: 100% of the particles have a diameter of ≦15.0 μm, 99% of the particles have a diameter of ≦12.5 μm, 95% of the particles have a diameter of ≦10.0 μm, and 50% of the particles have a diameter of ≦3.0 μm. Furthermore, no particle is larger than 20 μm, and […] have a diameter of ≧15 μm and ≦20 μm.
# [2] = Relative bioavailability of drospirenone and ethinylestradiol from tablets versus oral suspension, open-label crossover study; assay type: in vivo; conditions: female, human, tablet 3 mg drospirenone + 0.03 mg ethinylestradiol, healthy women, serum concentrations, read-out: relative bioavailability from the tablets compared to the oral suspension
# Experimental: 42 healthy women between 18 and 35 years of age were included in an open-label crossover study after their informed consent had been obtained. The aim of the study was to investigate the relative bioavailability of drospirenone and ethinylestradiol from a tablet formulation containing 3 mg drospirenone and 0.03 mg ethinylestradiol with reference to an oral suspension containing 6 mg of drospirenone and 0.06 mg ethinylestradiol per vial.
# The bioavailability was determined using serum concentrations of each active agent as parameters. […] It was therefore concluded that both drospirenone and ethinylestradiol are completely released from the tablets in vivo.
# [3] = Dissolution of drospirenone from tablets, USP XXIII Paddle Method; assay type: physicochemical; conditions: 900 ml water, 37° C., 50 rpm
# Experimental: Instead of providing the drospirenone in micronized form, it is possible to dissolve it in a suitable solvent, e.g. methanol or ethyl acetate, and spray it onto the surface of inert carrier particles followed by incorporation of the particles containing drospirenone on their surface in the composition.
# The rate of dissolution of drospirenone from the tablets prepared in Example 1 is determined by the USP XXIII Paddle Method using a USP Dissolution Test Apparatus 2 including 6 covered glass vessels and 6 paddles. Tablets are placed in 900 ml water at a temperature of 37° C. (±0.5° C.) and stirred at 50 rpm.
# [4] = Absolute bioavailability of drospirenone after oral administration; conditions: female, human, in vivo
solubility [1],bioavailability [2],"drospirenone dissolved within 30 minutes ([3]; film-coated tablets, FIG. 3)","drospirenone dissolved within 30 minutes ([3]; tablet cores, FIG. 2)",stability under acid conditions ([1]; acid conditions),stability under alkaline conditions ([1]; alkaline conditions),"bioavailability ([4]; oral administration of 2 mg drospirenone, 8 young healthy women)","bioavailability ([4]; oral microcrystalline suspension containing 3.13 mg drospirenone, 6 postmenopausal women)",Compound
sparingly soluble,117%,,,,,,,"C#C[C@]1(O)CC[C@H]2[C@@H]3CCc4cc(O)ccc4[C@H]3CC[C@@]21C [ethinylestradiol, 17α-ethinylestradiol]"
sparingly soluble,107%,more than 70%,more than 70%,rearranged to an inactive isomer,hydrolysed,76%,85%,"C[C@]12CCC(=O)C=C1[C@@H]1C[C@@H]1[C@H]1[C@@H]3[C@@H]4C[C@@H]4[C@@]4(CCC(=O)O4)[C@@]3(C)CC[C@@H]12 [drospirenone, 6β,7β;15β,16β-dimethylene-3-oxo-17α-pregn-4-ene-21,17-carbolactone]"

# — US6787531B1, “Pharmaceutical composition for use as a contraceptive” (Schering AG, priority 1999, dated 2004)
